In ChEMBL document CHEMBL3991601, “The target landscape of clinical kinase drugs” (Science, 2017):
Calls of active or inactive are those of the source. Rule as the data show it, for most assays here: actives have a measured Kd and inactives only a lower limit.

biological target: Serine/threonine-protein kinase N1 (Homo sapiens, UniProt Q16512)
Also: in the data inactive means no Kd found up to 30 µM.

Serine/threonine-protein kinase N1, sequence (Q16512 whole entry): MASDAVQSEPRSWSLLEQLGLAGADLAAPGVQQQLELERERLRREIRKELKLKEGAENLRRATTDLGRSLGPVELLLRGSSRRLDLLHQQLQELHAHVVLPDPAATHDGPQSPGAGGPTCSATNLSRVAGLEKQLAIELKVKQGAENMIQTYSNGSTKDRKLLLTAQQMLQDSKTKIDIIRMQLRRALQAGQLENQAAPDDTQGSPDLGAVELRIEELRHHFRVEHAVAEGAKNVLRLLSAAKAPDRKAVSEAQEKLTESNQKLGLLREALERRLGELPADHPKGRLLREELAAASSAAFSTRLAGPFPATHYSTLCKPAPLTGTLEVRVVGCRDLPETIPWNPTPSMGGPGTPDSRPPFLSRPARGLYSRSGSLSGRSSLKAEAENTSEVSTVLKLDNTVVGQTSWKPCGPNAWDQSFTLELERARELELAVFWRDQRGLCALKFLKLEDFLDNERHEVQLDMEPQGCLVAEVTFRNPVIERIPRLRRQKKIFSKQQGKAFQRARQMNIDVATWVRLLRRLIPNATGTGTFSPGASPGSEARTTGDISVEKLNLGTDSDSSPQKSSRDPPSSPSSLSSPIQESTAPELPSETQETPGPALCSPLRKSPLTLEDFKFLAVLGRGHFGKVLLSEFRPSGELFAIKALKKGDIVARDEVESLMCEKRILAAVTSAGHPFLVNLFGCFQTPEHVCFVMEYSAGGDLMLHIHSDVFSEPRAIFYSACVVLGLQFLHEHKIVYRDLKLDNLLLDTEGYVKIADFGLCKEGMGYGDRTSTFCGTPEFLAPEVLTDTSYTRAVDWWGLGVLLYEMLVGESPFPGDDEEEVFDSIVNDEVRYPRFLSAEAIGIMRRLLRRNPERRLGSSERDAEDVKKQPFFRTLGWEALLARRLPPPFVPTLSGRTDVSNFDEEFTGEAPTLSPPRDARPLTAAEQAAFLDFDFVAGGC

| SMILES | Kd |
| --- | --- |
| COc1cc(CCc2cc(NC(=O)c3ccc(N4C[C@@H](C)N[C@@H](C)C4)cc3)n[nH]2)cc(OC)c1 [AZD-4547] | > 30 µM (inactive) |
| Cc1cc([C@@H](C)Nc2ccccc2C(=O)O)c2nc(N3CCOCC3)cc(=O)n2c1 [AZD-6482] | > 30 µM (inactive) |
| COc1ccc(-c2ccc3c(N4CCOC[C@@H]4C)nc(N4CCOC[C@@H]4C)nc3n2)cc1CO [AZD-8055] | > 30 µM (inactive) |
| C[C@@H](Nc1cc(F)cc(F)c1)c1cc(C(=O)N(C)C)cc2c(=O)cc(N3CCOCC3)oc12 [AZD-8186] | > 30 µM (inactive) |

biological target: Elongation factor Tu, mitochondrial (Homo sapiens, UniProt P49411)

| SMILES | Kd |
| --- | --- |
| COc1cc(CCc2cc(NC(=O)c3ccc(N4C[C@@H](C)N[C@@H](C)C4)cc3)n[nH]2)cc(OC)c1 [AZD-4547] | > 30 µM (inactive) |
| Cc1cc([C@@H](C)Nc2ccccc2C(=O)O)c2nc(N3CCOCC3)cc(=O)n2c1 [AZD-6482] | > 30 µM (inactive) |
| COc1ccc(-c2ccc3c(N4CCOC[C@@H]4C)nc(N4CCOC[C@@H]4C)nc3n2)cc1CO [AZD-8055] | > 30 µM (inactive) |
| C[C@@H](Nc1cc(F)cc(F)c1)c1cc(C(=O)N(C)C)cc2c(=O)cc(N3CCOCC3)oc12 [AZD-8186] | > 30 µM (inactive) |

biological target: T1, Septin-9 (Homo sapiens, UniProt Q9UHD8)
T1 sequence (Q9UHD8 whole entry): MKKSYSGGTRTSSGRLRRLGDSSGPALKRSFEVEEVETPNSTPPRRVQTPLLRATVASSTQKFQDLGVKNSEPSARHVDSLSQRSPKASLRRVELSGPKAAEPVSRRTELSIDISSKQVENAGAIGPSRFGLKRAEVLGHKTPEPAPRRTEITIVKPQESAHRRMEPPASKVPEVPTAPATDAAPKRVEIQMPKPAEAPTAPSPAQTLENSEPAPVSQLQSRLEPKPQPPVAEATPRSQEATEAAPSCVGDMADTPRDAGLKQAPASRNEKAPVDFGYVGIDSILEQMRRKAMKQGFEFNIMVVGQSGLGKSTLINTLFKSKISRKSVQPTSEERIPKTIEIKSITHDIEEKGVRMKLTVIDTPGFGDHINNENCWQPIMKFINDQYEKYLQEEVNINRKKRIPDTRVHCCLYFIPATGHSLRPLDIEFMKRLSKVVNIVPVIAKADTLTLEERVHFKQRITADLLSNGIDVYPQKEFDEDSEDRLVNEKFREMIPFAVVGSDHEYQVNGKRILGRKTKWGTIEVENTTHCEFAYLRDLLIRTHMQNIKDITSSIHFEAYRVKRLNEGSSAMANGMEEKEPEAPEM

| SMILES | Kd |
| --- | --- |
| COc1cc(CCc2cc(NC(=O)c3ccc(N4C[C@@H](C)N[C@@H](C)C4)cc3)n[nH]2)cc(OC)c1 [AZD-4547] | > 30 µM (inactive) |
| Cc1cc([C@@H](C)Nc2ccccc2C(=O)O)c2nc(N3CCOCC3)cc(=O)n2c1 [AZD-6482] | > 30 µM (inactive) |
| COc1ccc(-c2ccc3c(N4CCOC[C@@H]4C)nc(N4CCOC[C@@H]4C)nc3n2)cc1CO [AZD-8055] | > 30 µM (inactive) |
| C[C@@H](Nc1cc(F)cc(F)c1)c1cc(C(=O)N(C)C)cc2c(=O)cc(N3CCOCC3)oc12 [AZD-8186] | > 30 µM (inactive) |

biological target: Eukaryotic translation initiation factor 2-alpha kinase 1 (Homo sapiens, UniProt Q9BQI3)
Sequence (Q9BQI3 whole entry): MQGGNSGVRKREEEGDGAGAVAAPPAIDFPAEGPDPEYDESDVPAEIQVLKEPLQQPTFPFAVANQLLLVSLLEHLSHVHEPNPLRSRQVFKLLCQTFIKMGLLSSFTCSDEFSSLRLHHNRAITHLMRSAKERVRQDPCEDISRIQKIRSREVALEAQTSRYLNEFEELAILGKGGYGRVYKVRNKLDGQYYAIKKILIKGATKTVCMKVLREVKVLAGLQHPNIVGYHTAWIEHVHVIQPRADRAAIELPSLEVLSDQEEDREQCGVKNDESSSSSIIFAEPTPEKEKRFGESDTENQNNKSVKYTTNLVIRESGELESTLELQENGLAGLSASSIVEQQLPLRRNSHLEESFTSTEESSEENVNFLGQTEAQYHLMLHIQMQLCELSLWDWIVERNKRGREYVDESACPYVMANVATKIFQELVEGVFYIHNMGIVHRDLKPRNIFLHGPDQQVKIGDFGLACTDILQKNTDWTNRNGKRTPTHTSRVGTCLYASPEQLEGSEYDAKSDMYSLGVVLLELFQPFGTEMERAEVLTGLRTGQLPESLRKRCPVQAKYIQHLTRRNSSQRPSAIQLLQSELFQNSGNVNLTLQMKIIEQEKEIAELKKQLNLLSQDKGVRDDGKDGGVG

| SMILES | Kd |
| --- | --- |
| COc1cc(CCc2cc(NC(=O)c3ccc(N4C[C@@H](C)N[C@@H](C)C4)cc3)n[nH]2)cc(OC)c1 [AZD-4547] | 0.17 µM (active) |
| Cc1cc([C@@H](C)Nc2ccccc2C(=O)O)c2nc(N3CCOCC3)cc(=O)n2c1 [AZD-6482] | > 30 µM (inactive) |
| COc1ccc(-c2ccc3c(N4CCOC[C@@H]4C)nc(N4CCOC[C@@H]4C)nc3n2)cc1CO [AZD-8055] | > 30 µM (inactive) |
| C[C@@H](Nc1cc(F)cc(F)c1)c1cc(C(=O)N(C)C)cc2c(=O)cc(N3CCOCC3)oc12 [AZD-8186] | > 30 µM (inactive) |

biological target: Serine/threonine-protein kinase MRCK alpha (Homo sapiens, UniProt Q5VT25)
Sequence (Q5VT25 whole entry): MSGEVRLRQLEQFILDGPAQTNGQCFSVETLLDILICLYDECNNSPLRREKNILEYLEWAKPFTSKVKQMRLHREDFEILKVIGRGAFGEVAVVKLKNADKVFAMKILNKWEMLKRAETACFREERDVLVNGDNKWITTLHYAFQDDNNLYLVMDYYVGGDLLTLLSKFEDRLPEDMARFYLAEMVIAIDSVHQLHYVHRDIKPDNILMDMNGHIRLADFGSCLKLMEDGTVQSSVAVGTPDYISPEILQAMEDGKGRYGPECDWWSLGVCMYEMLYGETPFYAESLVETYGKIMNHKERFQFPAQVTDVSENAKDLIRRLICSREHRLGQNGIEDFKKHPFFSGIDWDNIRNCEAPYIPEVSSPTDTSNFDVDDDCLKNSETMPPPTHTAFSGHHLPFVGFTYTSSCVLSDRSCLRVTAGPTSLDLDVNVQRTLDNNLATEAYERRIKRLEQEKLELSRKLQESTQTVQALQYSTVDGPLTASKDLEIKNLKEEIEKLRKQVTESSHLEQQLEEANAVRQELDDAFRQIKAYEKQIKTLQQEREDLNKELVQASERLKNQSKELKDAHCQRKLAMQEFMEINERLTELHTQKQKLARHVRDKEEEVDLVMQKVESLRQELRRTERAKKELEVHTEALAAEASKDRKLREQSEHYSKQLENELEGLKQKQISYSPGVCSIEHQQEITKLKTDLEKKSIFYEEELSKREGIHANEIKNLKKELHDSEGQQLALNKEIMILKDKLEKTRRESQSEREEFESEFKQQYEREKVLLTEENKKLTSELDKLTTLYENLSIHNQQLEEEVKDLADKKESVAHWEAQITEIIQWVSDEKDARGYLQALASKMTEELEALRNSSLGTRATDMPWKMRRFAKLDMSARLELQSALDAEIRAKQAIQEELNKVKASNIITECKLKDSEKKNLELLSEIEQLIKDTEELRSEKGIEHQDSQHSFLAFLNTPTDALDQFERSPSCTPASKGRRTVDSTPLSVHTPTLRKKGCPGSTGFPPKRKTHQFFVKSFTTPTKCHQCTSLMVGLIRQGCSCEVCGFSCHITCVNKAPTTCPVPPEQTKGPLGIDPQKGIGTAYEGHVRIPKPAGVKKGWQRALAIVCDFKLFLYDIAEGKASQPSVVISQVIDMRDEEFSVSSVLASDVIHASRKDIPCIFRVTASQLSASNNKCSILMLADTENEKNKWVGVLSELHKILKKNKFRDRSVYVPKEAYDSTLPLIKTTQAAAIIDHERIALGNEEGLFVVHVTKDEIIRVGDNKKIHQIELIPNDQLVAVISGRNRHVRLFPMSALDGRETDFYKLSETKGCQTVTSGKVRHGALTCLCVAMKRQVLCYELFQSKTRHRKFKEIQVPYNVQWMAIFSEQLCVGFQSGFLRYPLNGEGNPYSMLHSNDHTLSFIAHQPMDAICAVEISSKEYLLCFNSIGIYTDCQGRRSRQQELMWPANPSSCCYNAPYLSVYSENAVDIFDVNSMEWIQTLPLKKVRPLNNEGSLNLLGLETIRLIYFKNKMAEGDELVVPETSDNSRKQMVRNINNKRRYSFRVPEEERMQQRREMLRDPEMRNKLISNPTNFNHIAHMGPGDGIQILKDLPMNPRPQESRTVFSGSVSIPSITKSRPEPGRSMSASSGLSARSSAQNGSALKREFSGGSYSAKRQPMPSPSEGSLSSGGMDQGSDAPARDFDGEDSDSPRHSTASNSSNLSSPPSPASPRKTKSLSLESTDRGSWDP

| SMILES | Kd |
| --- | --- |
| COc1cc(CCc2cc(NC(=O)c3ccc(N4C[C@@H](C)N[C@@H](C)C4)cc3)n[nH]2)cc(OC)c1 [AZD-4547] | > 30 µM (inactive) |
| Cc1cc([C@@H](C)Nc2ccccc2C(=O)O)c2nc(N3CCOCC3)cc(=O)n2c1 [AZD-6482] | > 30 µM (inactive) |
| COc1ccc(-c2ccc3c(N4CCOC[C@@H]4C)nc(N4CCOC[C@@H]4C)nc3n2)cc1CO [AZD-8055] | > 30 µM (inactive) |
| C[C@@H](Nc1cc(F)cc(F)c1)c1cc(C(=O)N(C)C)cc2c(=O)cc(N3CCOCC3)oc12 [AZD-8186] | > 30 µM (inactive) |

biological target: Mitogen-activated protein kinase 9 (Homo sapiens, UniProt P45984)
Sequence (P45984 whole entry): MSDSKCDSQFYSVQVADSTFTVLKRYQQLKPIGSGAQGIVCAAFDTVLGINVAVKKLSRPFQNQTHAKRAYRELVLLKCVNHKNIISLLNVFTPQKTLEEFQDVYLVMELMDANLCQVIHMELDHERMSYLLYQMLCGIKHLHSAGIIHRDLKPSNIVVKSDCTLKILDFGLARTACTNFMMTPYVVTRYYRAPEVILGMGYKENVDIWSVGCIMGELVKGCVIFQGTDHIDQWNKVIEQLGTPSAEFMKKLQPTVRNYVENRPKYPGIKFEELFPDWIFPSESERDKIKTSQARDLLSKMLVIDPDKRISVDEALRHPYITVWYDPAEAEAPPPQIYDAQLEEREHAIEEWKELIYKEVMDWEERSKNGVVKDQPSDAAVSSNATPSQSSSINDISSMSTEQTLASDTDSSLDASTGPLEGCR

| SMILES | Kd |
| --- | --- |
| COc1cc(CCc2cc(NC(=O)c3ccc(N4C[C@@H](C)N[C@@H](C)C4)cc3)n[nH]2)cc(OC)c1 [AZD-4547] | > 30 µM (inactive) |
| Cc1cc([C@@H](C)Nc2ccccc2C(=O)O)c2nc(N3CCOCC3)cc(=O)n2c1 [AZD-6482] | > 30 µM (inactive) |
| COc1ccc(-c2ccc3c(N4CCOC[C@@H]4C)nc(N4CCOC[C@@H]4C)nc3n2)cc1CO [AZD-8055] | > 30 µM (inactive) |
| C[C@@H](Nc1cc(F)cc(F)c1)c1cc(C(=O)N(C)C)cc2c(=O)cc(N3CCOCC3)oc12 [AZD-8186] | > 30 µM (inactive) |

biological target: Casein kinase I isoform epsilon (Homo sapiens, UniProt P49674)
Sequence (P49674 whole entry, canonical isoform): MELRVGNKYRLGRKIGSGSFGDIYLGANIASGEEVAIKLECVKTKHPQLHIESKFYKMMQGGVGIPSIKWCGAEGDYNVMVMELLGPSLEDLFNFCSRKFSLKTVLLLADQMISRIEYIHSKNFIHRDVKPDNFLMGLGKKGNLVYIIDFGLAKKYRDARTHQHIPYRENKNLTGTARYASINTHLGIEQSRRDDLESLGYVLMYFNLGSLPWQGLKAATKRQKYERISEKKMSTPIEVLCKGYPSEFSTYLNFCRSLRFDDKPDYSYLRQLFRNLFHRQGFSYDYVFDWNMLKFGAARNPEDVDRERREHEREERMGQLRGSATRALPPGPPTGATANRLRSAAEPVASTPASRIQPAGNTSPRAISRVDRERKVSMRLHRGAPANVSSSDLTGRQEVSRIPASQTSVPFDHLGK

| SMILES | Kd |
| --- | --- |
| COc1cc(CCc2cc(NC(=O)c3ccc(N4C[C@@H](C)N[C@@H](C)C4)cc3)n[nH]2)cc(OC)c1 [AZD-4547] | > 30 µM (inactive) |
| Cc1cc([C@@H](C)Nc2ccccc2C(=O)O)c2nc(N3CCOCC3)cc(=O)n2c1 [AZD-6482] | > 30 µM (inactive) |
| COc1ccc(-c2ccc3c(N4CCOC[C@@H]4C)nc(N4CCOC[C@@H]4C)nc3n2)cc1CO [AZD-8055] | > 30 µM (inactive) |
| C[C@@H](Nc1cc(F)cc(F)c1)c1cc(C(=O)N(C)C)cc2c(=O)cc(N3CCOCC3)oc12 [AZD-8186] | > 30 µM (inactive) |

biological target: Dual specificity mitogen-activated protein kinase kinase 1 (Homo sapiens, UniProt Q02750)
Sequence (Q02750 whole entry): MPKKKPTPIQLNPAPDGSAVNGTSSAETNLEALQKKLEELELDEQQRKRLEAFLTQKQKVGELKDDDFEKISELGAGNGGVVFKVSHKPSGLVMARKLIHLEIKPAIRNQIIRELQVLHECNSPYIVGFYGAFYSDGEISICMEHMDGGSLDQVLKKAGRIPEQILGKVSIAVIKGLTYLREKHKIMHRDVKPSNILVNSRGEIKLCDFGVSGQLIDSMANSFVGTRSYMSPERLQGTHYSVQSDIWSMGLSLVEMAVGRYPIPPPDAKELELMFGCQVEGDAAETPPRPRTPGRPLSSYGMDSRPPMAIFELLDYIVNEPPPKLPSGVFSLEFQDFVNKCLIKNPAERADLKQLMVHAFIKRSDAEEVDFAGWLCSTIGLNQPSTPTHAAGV

| SMILES | Kd |
| --- | --- |
| COc1cc(CCc2cc(NC(=O)c3ccc(N4C[C@@H](C)N[C@@H](C)C4)cc3)n[nH]2)cc(OC)c1 [AZD-4547] | > 30 µM (inactive) |
| Cc1cc([C@@H](C)Nc2ccccc2C(=O)O)c2nc(N3CCOCC3)cc(=O)n2c1 [AZD-6482] | > 30 µM (inactive) |
| COc1ccc(-c2ccc3c(N4CCOC[C@@H]4C)nc(N4CCOC[C@@H]4C)nc3n2)cc1CO [AZD-8055] | > 30 µM (inactive) |
| C[C@@H](Nc1cc(F)cc(F)c1)c1cc(C(=O)N(C)C)cc2c(=O)cc(N3CCOCC3)oc12 [AZD-8186] | > 30 µM (inactive) |

biological target: NADH dehydrogenase [ubiquinone] 1 alpha subcomplex subunit 13 (Homo sapiens, UniProt Q9P0J0)
Sequence (Q9P0J0 whole entry, one chain of several): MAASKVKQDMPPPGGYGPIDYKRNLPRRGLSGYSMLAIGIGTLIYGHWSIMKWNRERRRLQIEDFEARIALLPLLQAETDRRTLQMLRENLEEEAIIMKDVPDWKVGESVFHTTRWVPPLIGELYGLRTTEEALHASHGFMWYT

| SMILES | Kd |
| --- | --- |
| COc1cc(CCc2cc(NC(=O)c3ccc(N4C[C@@H](C)N[C@@H](C)C4)cc3)n[nH]2)cc(OC)c1 [AZD-4547] | > 30 µM (inactive) |
| Cc1cc([C@@H](C)Nc2ccccc2C(=O)O)c2nc(N3CCOCC3)cc(=O)n2c1 [AZD-6482] | > 30 µM (inactive) |
| COc1ccc(-c2ccc3c(N4CCOC[C@@H]4C)nc(N4CCOC[C@@H]4C)nc3n2)cc1CO [AZD-8055] | > 30 µM (inactive) |
| C[C@@H](Nc1cc(F)cc(F)c1)c1cc(C(=O)N(C)C)cc2c(=O)cc(N3CCOCC3)oc12 [AZD-8186] | > 30 µM (inactive) |

biological target: Tyrosine-protein kinase FRK (Homo sapiens, UniProt P42685)

| SMILES | Kd |
| --- | --- |
| COc1cc(CCc2cc(NC(=O)c3ccc(N4C[C@@H](C)N[C@@H](C)C4)cc3)n[nH]2)cc(OC)c1 [AZD-4547] | > 30 µM (inactive) |
| Cc1cc([C@@H](C)Nc2ccccc2C(=O)O)c2nc(N3CCOCC3)cc(=O)n2c1 [AZD-6482] | > 30 µM (inactive) |
| COc1ccc(-c2ccc3c(N4CCOC[C@@H]4C)nc(N4CCOC[C@@H]4C)nc3n2)cc1CO [AZD-8055] | > 30 µM (inactive) |
| C[C@@H](Nc1cc(F)cc(F)c1)c1cc(C(=O)N(C)C)cc2c(=O)cc(N3CCOCC3)oc12 [AZD-8186] | > 30 µM (inactive) |

biological target: T2, Serine/threonine-protein kinase NLK (Homo sapiens, UniProt Q9UBE8)
T2 sequence (Q9UBE8 whole entry): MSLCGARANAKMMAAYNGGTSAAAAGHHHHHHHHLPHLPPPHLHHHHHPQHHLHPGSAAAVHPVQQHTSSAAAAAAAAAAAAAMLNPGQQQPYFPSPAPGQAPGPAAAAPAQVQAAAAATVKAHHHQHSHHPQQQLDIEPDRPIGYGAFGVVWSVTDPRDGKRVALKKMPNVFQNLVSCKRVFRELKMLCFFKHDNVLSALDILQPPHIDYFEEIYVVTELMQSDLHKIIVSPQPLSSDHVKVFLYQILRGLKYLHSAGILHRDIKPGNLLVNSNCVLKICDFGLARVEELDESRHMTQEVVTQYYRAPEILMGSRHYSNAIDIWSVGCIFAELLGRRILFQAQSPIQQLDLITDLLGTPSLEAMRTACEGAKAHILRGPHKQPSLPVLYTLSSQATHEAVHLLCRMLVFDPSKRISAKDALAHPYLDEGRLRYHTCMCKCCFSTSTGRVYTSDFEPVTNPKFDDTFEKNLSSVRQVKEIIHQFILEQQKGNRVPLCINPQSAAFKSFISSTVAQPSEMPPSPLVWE

| SMILES | Kd |
| --- | --- |
| COc1cc(CCc2cc(NC(=O)c3ccc(N4C[C@@H](C)N[C@@H](C)C4)cc3)n[nH]2)cc(OC)c1 [AZD-4547] | > 30 µM (inactive) |
| Cc1cc([C@@H](C)Nc2ccccc2C(=O)O)c2nc(N3CCOCC3)cc(=O)n2c1 [AZD-6482] | > 30 µM (inactive) |
| COc1ccc(-c2ccc3c(N4CCOC[C@@H]4C)nc(N4CCOC[C@@H]4C)nc3n2)cc1CO [AZD-8055] | > 30 µM (inactive) |
| C[C@@H](Nc1cc(F)cc(F)c1)c1cc(C(=O)N(C)C)cc2c(=O)cc(N3CCOCC3)oc12 [AZD-8186] | > 30 µM (inactive) |

biological target: T3, Activin receptor type-1B (Homo sapiens, UniProt P36896)
T3 sequence (P36896 whole entry): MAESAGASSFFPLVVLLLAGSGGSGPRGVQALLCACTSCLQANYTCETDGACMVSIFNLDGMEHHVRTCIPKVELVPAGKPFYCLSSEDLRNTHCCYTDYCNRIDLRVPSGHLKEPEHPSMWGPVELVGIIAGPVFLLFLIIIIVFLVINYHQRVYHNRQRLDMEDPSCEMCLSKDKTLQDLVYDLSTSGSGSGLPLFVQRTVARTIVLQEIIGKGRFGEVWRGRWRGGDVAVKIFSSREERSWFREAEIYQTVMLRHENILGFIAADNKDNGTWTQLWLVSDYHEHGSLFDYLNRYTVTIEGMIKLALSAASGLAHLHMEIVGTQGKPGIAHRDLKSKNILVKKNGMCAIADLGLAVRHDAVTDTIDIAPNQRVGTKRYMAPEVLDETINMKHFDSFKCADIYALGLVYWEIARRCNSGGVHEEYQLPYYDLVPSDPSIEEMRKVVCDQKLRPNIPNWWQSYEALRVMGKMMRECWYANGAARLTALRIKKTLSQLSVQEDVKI

| SMILES | Kd |
| --- | --- |
| COc1cc(CCc2cc(NC(=O)c3ccc(N4C[C@@H](C)N[C@@H](C)C4)cc3)n[nH]2)cc(OC)c1 [AZD-4547] | > 30 µM (inactive) |
| Cc1cc([C@@H](C)Nc2ccccc2C(=O)O)c2nc(N3CCOCC3)cc(=O)n2c1 [AZD-6482] | > 30 µM (inactive) |
| COc1ccc(-c2ccc3c(N4CCOC[C@@H]4C)nc(N4CCOC[C@@H]4C)nc3n2)cc1CO [AZD-8055] | > 30 µM (inactive) |
| C[C@@H](Nc1cc(F)cc(F)c1)c1cc(C(=O)N(C)C)cc2c(=O)cc(N3CCOCC3)oc12 [AZD-8186] | > 30 µM (inactive) |
